Measured values published in patent US11512107B2, “Methods for assembly of tetracyclic compounds by stereoselective C9-C10 bond formation” (Trustees of Dartmouth College, priority 2018, dated 2022).

How the values were obtained:
[1] = test system: ERβ; assay: Alkaline phosphatase (ALP) activity in DU-145 prostate cancer cells expressing endogenous ERβ; format: cell-based, human; conditions: DU-145 cells, 24 hours, 5 μM
Experimental: FIG. 2 is a bar graph showing alkaline phosphatase activity in human DU-145 prostate cancer cells (17β-estradiol, Compound 100, and Compound 101 were evaluated at 5 μM).
The DU-145 prostate cancer cell line only expresses ERβ and can be used as a model to examine the activation of ERβ in the absence of any potential confounding signal driven by ERα. Alkaline phosphatase (ALP) expression is induced in an ER-dependent manner and has been used to characterize the activity of synthetic ER agonists and antagonists.
In order to examine the ability of Compound 100 and Compound 101 to activate ERβ in the context of a cell line expressing endogenous ERβ, DU-145 cells were treated for 24 hours with either 17β-estradiol, Compound 100, or Compound 101 and ALP activity derived from the cells was examined.

[2] = molecular target: ERβ (Homo sapiens, UniProt Q92731); assay: ERβ agonist assay (functional activity at estrogen receptors, FIG. 1); format: cell-based; conditions: for selectivity over ERα: ERβ over ERα, relative to 17β-estradiol; for EC50: read-out: EC50 ERβ agonism
ERβ (Homo sapiens, UniProt Q92731), sequence (Q92731 whole entry): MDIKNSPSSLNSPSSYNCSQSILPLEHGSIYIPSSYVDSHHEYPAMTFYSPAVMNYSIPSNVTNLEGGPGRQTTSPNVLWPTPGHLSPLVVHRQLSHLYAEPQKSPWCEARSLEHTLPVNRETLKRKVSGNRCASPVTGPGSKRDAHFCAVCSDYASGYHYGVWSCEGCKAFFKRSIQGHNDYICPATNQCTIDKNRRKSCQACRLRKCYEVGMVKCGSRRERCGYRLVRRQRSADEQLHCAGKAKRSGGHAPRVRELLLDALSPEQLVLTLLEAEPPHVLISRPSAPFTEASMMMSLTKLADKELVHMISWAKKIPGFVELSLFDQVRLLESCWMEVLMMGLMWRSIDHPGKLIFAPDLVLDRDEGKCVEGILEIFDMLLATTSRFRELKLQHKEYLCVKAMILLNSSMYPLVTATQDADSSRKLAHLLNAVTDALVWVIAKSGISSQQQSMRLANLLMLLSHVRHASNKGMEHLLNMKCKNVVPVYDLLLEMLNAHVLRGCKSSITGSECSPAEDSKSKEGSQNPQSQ
Experimental: FIG. 1 is a set of line graphs showing the results of ERβ and ERα agonist assays for Compounds 100 and 101.
Compounds 100 and 101 were evaluated for their functional activity at estrogen receptors (both ERα and ERβ). 17β-estradiol was used as a control, as it is appreciated to be a potent agonist of both ERα and ERβ.

[3] = test system: U251 and U87 cells; assay: Growth inhibition and viable cell counts of glioblastoma-derived cell lines; format: cell-based, human; conditions: U251 and U87, after 24 hours, versus TMZ
Experimental: FIG. 3A-3B are line graphs depicting (A) dose dependent growth inhibition of U251 and U87 cells treated with Compound 100, Compound 101, TMZ, and vehicle control DMSO (n=4) and (B) viable cell counts of U251 and U87 cells treated with Compound 100, Compound 101, TMZ, and vehicle control DMSO determined every 24 hours for 96 hours (n=4)
To determine the biological effect of Compound 100 and Compound 101, human glioblastoma-derived cell lines U251 and U87 were treated with varying concentrations of Compound 100, Compound 101, temazolomide (TMZ; a standard of care chemotherapeutic agent), or vehicle-toxicity control, dimethylsulfoxide (DMSO) used at final volumes that were identical to those used to attain all concentrations tested of Compound 100 and Compound 101.

[4] = test system: U251 and U87 cells; assay: Apoptosis by Annexin V / 7-AAD FACS analysis; format: cell-based, human; conditions: U251 and U87, 24 hours
Experimental: FIG. 3C is a flow cytometric analysis of U251 and U87 co-stained with Annexin V-FITC/7-AAD after treatment with Compound 100, Compound 101, TMZ, and vehicle control DMSO (n=4).
In order to elucidate the mechanism of this cell death, glioblastoma cells treated for 24 hours with Compound 100, Compound 101, TMZ, or DMSO control were analyzed for early and late apoptosis markers (Annexin V and 7-Aminoactinomycin D) by FACS analyses. […] Additionally, over a period of five days, morphological changes in U251 and U87 cells treated with Compound 100 and Compound 101 were tracked using the Incucyte live cell imaging system.

[5] = test system: human neural stem cells as well as human astrocytes; assay: Cell viability of non-tumour neural cells; format: cell-based; conditions: at the equivalent concentration
[6] = Initial in vivo toxicity studies
Text: In comparison to 17β-estradiol, Compound 100 and Compound 101 have a unique profile for selective agonism of ERβ (FIG. 1).

selectivity over ERα [2] | EC50 [2] | inhibition of glioma cell growth (IC50): fold lower concentration compared to TMZ [3] | SMILES | induction of ALP activity [1] | induction of apoptosis, fold higher than TMZ or DMSO controls [4] | cell viability of human neural stem cells and human astrocytes [5] | in vivo toxicity [6]
 |  |  | C[C@]12CC[C@@H]3c4ccc(O)cc4CC[C@H]3[C@@H]1CC[C@@H]2O [17β-estradiol] | effective in inducing ALP activity |  |  | 
> 260 fold | 0.05 nM | 50 fold | C[C@]12CC[C@@]3(C)C(=C1C[C@@H](O)C2)CCc1cc(O)ccc13 [Compound 100, (9S,13R,16S)-9,13-dimethyl-7,9,11,12,13,15,16,17-octahydro-6H-cyclopenta[a]phenanthrene-3,16-diol] |  | 7 fold | not affected | neither compound is toxic
~6 fold | 1.9 nM | 50 fold | C[C@@]12CC[C@]3(C)C(=C1C[C@H](O)C2)CCc1cc(O)ccc13 [Compound 101, (9R,13S,16R)-9,13-dimethyl-7,9,11,12,13,15,16,17-octahydro-6H-cyclopenta[a]phenanthrene-3,16-diol] |  | 7 fold | not affected | neither compound is toxic
